According to US12590124B2, “Peptide with neutralizing activity against severe acute respiratory syndrome coronavirus 2” (CAREGEN CO, LTD., priority 2020, dated 2026):
Read-outs that look alike come from different tables or passages of the source. Where no end group is shown, it is not given here.

Test system: SARS-CoV-2
Conditions: 1 h

Row | Substance | Inhibition rate (2.5 mM) [%] | Inhibition rate (10 mM) [%]
1 | WVPYQARVPYPR [SEQ ID NO: 4, WVPYQARVPYPR] | 55 | 98
2 | KYLLVHRPYYRR [SEQ ID NO: 3, KYLLVHRPYYRR] | 98 | 98
3 | KFNRRHH [SEQ ID NO: 2, KFNRRHH] | 51 | 96
4 | RSYMTTHHEQF [SEQ ID NO: 1, RSYMTTHHEQF] | 21 | 100
